Consider 1 sequence from US20120189673A1, “POLYPEPTIDES AND USES THEREOF” (priority 2009, published 2012).

“Also recorded” adds a separate entry of the source.

Test [1] deals with E. coli LPS shock in C57BL/6 mice. The test can be described thus: LPS model in vivo (LPS-induced shock): survival, cytokines, lungs. Also noted: species or system mouse. As for the experimental part:
Histochemistry—For immunostaining, wound biopsies were fixed in 10% formalin, rehydrated and embedded in paraffin. Sections of 5 μm thickness were placed on poly-lysine coated glass slides, deparaffinized in xylene and rehydrated in graded alcohols. The slides were then treated with Dako antigen retrieval solution (Dako) for 40 min at 97° C., and incubated for 24 h at room temperature in a 1:50 dilution of polyclonal antibodies against TFPI (Sigma-Aldrich, in TBS with 1% BSA, 5% goat serum, 0.05% Tween 20). After three 20 min washes in TBS with 0.05% Tween 20, the sections were incubated with alkaline phosphatase conjugated secondary goat anti-rabbit IgG (Dako) diluted 1:1000 in the same buffer as the primary antibody and incubated for another 24 hours, followed by three 20 min washes. Sections were developed with Vulcan Fast Red chromogen (Biocare Medical, Concord, Calif.) and the slides were counterstained with Harris Hematoxylin (EM Science, Gibbstown, N.J.). For histological evaluation of lungs derived from the in vivo LPS-models in mice, tissues were embedded as above, sectioned and stained with hematoxylin and eosin by routine procedures (Histocenter, Gothenburg, Sweden).
LPS model in vivo—Male C57BL/6 mice (8-10 weeks, 22+/−5 g), were injected intraperitoneally with 18 mg E. coli 0111:B4 LPS (Sigma) per kg of body weight. Thirty minutes after LPS injection, 0.5 mg GGL27, GGL27(S), DSE25 or buffer alone was injected intraperitoneally into the mice. Survival and status was followed during seven days. For blood collection and histochemistry, mice were sacrificed 20 h after LPS challenge, and lungs were removed and fixed. These experiments were approved by the Laboratory Animal Ethics Committee of Malmo/Lund.
Cytokine assay—The cytokines IL-6, IL-10, MCP-1, INF-γ, and TNF-α were measured in plasma from mice subjected to LPS (with or without peptide treatment) using the Cytometric bead array; mouse inflammation kit (Becton Dickinson AB) according to the manufacturer's instructions.

In test [2] the test system is E. coli. Kind of test: FACS binding of TAMRA labeled peptide to E. coli. Also noted: species or system Escherichia coli. The following applies: 3 μM TAMRA labeled peptide in human plasma. How it is done: (§1) Flow cytometry analysis—Fifty μl of bacteria (1-2×10^6 cfu) were incubated with 450 μl of human plasma either alone or supplemented with GGL27 (at 3 μM). Samples were incubated for 30 min or 1 h at 37° C., divided into two equal parts, centrifuged, washed with PBS, and resuspended in 100 μl PBS with rabbit polyclonal antibodies against either LGE27 (25), a C-terminal epitope of human C3a, or rabbit polyclonal antibodies against C1q (both at 1:100). The mixtures were subsequently incubated for 1 h at room temperature. Bacteria were pelleted and washed twice with PBS, incubated in 100 μl PBS with goat anti rabbit IgG FITC-labeled antibodies (1:500, Sigma) for 30 min at room temperature and washed twice with PBS. In another experiment bacteria were incubated for 1 h in citrate plasma together with 3 μM TAMRA-labeled GGL27 peptide, then pelleted and washed twice with PBS. Flow cytometry analysis (Becton-Dickinson, Franklin Lakes, N.J.) was performed using a FACS-Calibur flow cytometry system equipped with a 15 mW argon laser turned a 488 nm. The bacterial population was selected by gating with appropriate settings of forward scatter (FSC) and sideward scatter (SSC).
For orientation: In flow cytometry, cells or beads pass a laser one at a time.

Test [3] has as its system E. coli infected mice. Kind of test: Animal infection model, E. coli. To be noted: E. coli i.p.; GGL27 200 μg i.p. after 30 min; P<0.001. It is filed as in vivo, mouse. How it is done:
Animal infection model—Animals were housed under standard conditions of light and temperature and had free access to standard laboratory chow and water. P. aeruginosa 15159 bacteria were grown to logarithmic phase (OD620˜0.5), harvested, washed in PBS, diluted in the same buffer to 2×10^8 cfu/ml, and kept on ice until injection. Hundred microliter of the bacterial suspension was injected intraperitoneally (i.p.) into female Balb/c mice. Sixty minutes after the bacterial injection, 0.5 mg GGL27 or buffer alone was injected subcutaneously (s.c.) into the mice. In a corresponding E. coli infection model, bacteria were grown to early logarithmic phase (OD620˜0.4), harvested, washed in PBS, diluted in the same buffer to 1×10^8 cfu/ml, and kept on ice until injection. Hundred microliter of the bacterial suspension was injected i.p. into female Balb/c mice. Thirty minutes after the bacterial injection, 0.2 mg of GGL27 peptide or buffer alone was injected i.p. Data from two independent experiments were pooled.

Test [4] has as its system P. aeruginosa. Kind of test: FACS binding of TAMRA labeled peptide to P. aeruginosa. Also noted: species or system Pseudomonas aeruginosa. To be noted: 3 μM TAMRA labeled peptide in human plasma. How it is done: as §1
For test [5], the system named is E. coli. Kind of test: Complement (C1q, C5b-9/MAC, C3a) binding to E. coli in citrate plasma (immunoblot, flow cytometry). Format: cell-based, Escherichia coli. To be noted: citrate plasma with GGL27 at 3 μM. As for the experimental part: as §1
SDS-PAGE and immunoblotting—Human citrate plasma (450 μl) was incubated with 50 μl bacteria (1-2×10^9 cfu) either alone or supplemented with the peptide GGL27 at 3 μM. The mixture was incubated for 30 min or 1 h at 37° C., centrifuged, and supernatants and bacteria collected. The bacterial pellet was washed with PBS and bound proteins eluted with 0.1 M glycine-HCl, pH 2.0. The pH of the eluted material was raised to 7.5 with 1 M Tris. Eluted proteins were precipitated by addition of 1 volume of trichloroacetic acid (TCA) to 4 volumes of sample, followed by incubation for 30 min on ice and centrifugation at 15 000 g (4° C. for 20 min). Precipitated material and supernatants were dissolved in SDS sample buffer and analyzed under reducing conditions by SDS-PAGE on 16.5% Tris-tricine gels (Clear PAGE™, C.B.S Scientific). Proteins and peptides were transferred to nitrocellulose membranes (Hybond-C). […]
In general terms: Immunoblotting shows a protein as a band on a membrane.

The mark [6] stands for this setting: 20 h after LPS injection, peptide 500 μg.

On to “GGLIKTKRKRKKQRVKIAYEEIFVKNM [GGL27, C-terminal peptide of TFPI, plasmin-generated]”, for which the “inflammatory changes in lungs (histochemical analysis)” value in test [1] (20 h after LPS injection, GGL27 500 μg) is “marked attenuation of inflammatory changes; also recorded: marked reduction of inflammation and vascular leakage”. Also, in test [1] (setting [6]), the IFN-γ in blood entry is “significant reductions”, the IL-6 in blood result is recorded as “significant reductions”, the IL-10 in blood entry is given as “increased” and the MCP-1 in blood result is listed as “significant reductions”. For the same sequence, in test [1] (setting [6]), the TNF-α in blood entry is listed as “significant reductions” and the “overall (proinflammatory) cytokine release” value is given as “attenuates proinflammatory cytokines”. Also, the survival entry in test [1] (E. coli LPS i.p., peptide 500 μg i.p. 30 minutes after, followed 7 days) is given as “significantly increased survival”. Moreover, the “anti-endotoxic effects in vivo” value in test [1] (mouse model of LPS-shock) is listed as “anti-endotoxic effects”. Besides, the binding to bacteria result in test [2] was “avidly bound”. The survival result in test [3] was “prolongs survival; also recorded: prolongation of survival”. Also, in test [4], the binding to bacteria entry was “avidly bound”. Also, in test [5], the “binding of C1q to bacteria” value is on record as “enhances; also recorded: enhanced binding of C1q”, the “formation of MAC” value was “enhances; also recorded: increased formation of MAC” and the “generation / binding of C3a” value is given as “enhances; also recorded: significant generation of C3a”.
